Measured values from patent US9049864B2, “Pyridazinone herbicidal compounds” (Syngenta Limited, priority 2012, dated 2015).

Columns and labels:
Test in all cases: Post-emergence herbicidal glasshouse test, percentage damage to the plant
Assay type in all cases: in vivo
Conditions in all cases: post-emergence, 1000 g/ha, evaluated after 13 days
Setaria faberi (SETFA) = system: Setaria faberi (SETFA)
Description: (§1) Seeds of a variety of test species are sown in standard soil in pots:—Solanum nigrum (SOLNI), Amaranthus retoflexus (AMARE), Setaria faberi (SETFA), Alopecurus myosuroides (ALOMY), Echinochloa crus-galli (ECHCG), Ipomoea hederacea (IPOHE). After 8 days cultivation (post-emergence) under controlled conditions in a glasshouse (at 24/16° C., day/night; 14 hours light; 65% humidity), the plants are sprayed with an aqueous spray solution derived from the formulation of the technical active ingredient in acetone/water (50:50) solution containing 0.5% Tween 20 (polyoxyethelyene sorbitan monolaurate, CAS RN 9005-64-5). Compounds are applied at 1000 g/ha. The test plants are then grown in a glasshouse under controlled conditions in a glasshouse (at 24/16° C., day/night; 14 hours light; 65% humidity) and watered twice daily. After 13 days, the test is evaluated for the percentage damage caused to the plant. The biological activities are shown in the following table on a five point scale (5=80-100%; 4=60-79%; 3=40-59%; 2=20-39%; 1=0-19%). A comparative experiment is conducted to compare the biological efficacy of a compound of the present invention with those of WO 2011/045271. The test is performed as outlined above using the following compounds. Three different application rates are employed (250 g/ha, 500 g/ha and 1000 g/ha).

[1] = system: Amaranthus retoflexus (AMARE)
Description: as §1

[2] = system: Alopecurus myosuroides (ALOMY)
Description: as §1

[3] = system: Echinochloa crus-galli (ECHCG)
Description: as §1

[4] = system: Ipomoea hederacea (IPOHE)
Description: as §1

Solanum nigrum (SOLNI) = system: Solanum nigrum (SOLNI)
Description: as §1

| Structure (SMILES) | POST Application SETFA, percentage damage (five point scale) (Setaria faberi (SETFA)) | POST Application AMARE, percentage damage (five point scale) [1] | POST Application ALOMY, percentage damage (five point scale) [2] | POST Application ECHCG, percentage damage (five point scale) [3] | POST Application IPOHE, percentage damage (five point scale) [4] | POST Application SOLNI, percentage damage (five point scale) (Solanum nigrum (SOLNI)) |
| --- | --- | --- | --- | --- | --- | --- |
| CN1N=C(COCC(F)(F)F)C(=O)C(n2c(Cl)c(Cl)c3ccccc32)C1=O (stereo not drawn) [Compound 2.012] | 1 (1=0-19%) | 1 (1=0-19%) | 1 (1=0-19%) | 1 (1=0-19%) | 4 (4=60-79%) | 4 (4=60-79%) |
| C=C(C)C1=NN(C)C(=O)C(n2c(Cl)c(Cl)c3ccccc32)C1=O (stereo not drawn) [Compound 2.016] | 1 (1=0-19%) | 4 (4=60-79%) | 1 (1=0-19%) | 1 (1=0-19%) | 2 (2=20-39%) | 4 (4=60-79%) |
| Cc1cn(C2C(=O)C=NN(C)C2=O)c2ccccc12 (stereo not drawn) [Compound 1.007] | 1 (1=0-19%) | 2 (2=20-39%) | 1 (1=0-19%) | 1 (1=0-19%) | 1 (1=0-19%) | 5 (5=80-100%) |
| CC1=NN(C)C(=O)C(n2c(Br)c(Br)c3ccc(Br)cc32)C1=O (stereo not drawn) [Compound 1.023] | 1 (1=0-19%) | 5 (5=80-100%) | 2 (2=20-39%) | 3 (3=40-59%) | 5 (5=80-100%) | 5 (5=80-100%) |
| CCC1=NN(C)C(=O)C(n2c(Cl)c(Cl)c3ccccc32)C1=O (stereo not drawn) [Compound 2.027] | 1 (1=0-19%) | 4 (4=60-79%) | 1 (1=0-19%) | 1 (1=0-19%) | 5 (5=80-100%) | 5 (5=80-100%) |
| CC1=NN(C)C(=O)C(n2c(Cl)c(Cl)c3ccccc32)C1=O (stereo not drawn) [Compound 1.003, 4-(2,3-dichloroindol-1-yl)-2,6-dimethyl-pyridazine-3,5-dione] | 1 (1=0-19%) | 5 (5=80-100%) | 1 (1=0-19%) | 2 (2=20-39%) | 5 (5=80-100%) | 5 (5=80-100%) |
| CN1N=CC(=O)C(n2ccc3cc(Br)ccc32)C1=O (stereo not drawn) [Compound 1.004] | 1 (1=0-19%) | 1 (1=0-19%) | 1 (1=0-19%) | 1 (1=0-19%) | 1 (1=0-19%) | 4 (4=60-79%) |
| CN1N=C(C#N)C(=O)C(n2c(Cl)c(Cl)c3ccccc32)C1=O (stereo not drawn) [Compound 2.001] | 2 (2=20-39%) | 3 (3=40-59%) | 1 (1=0-19%) | 2 (2=20-39%) | 5 (5=80-100%) | 5 (5=80-100%) |
| CN1N=C(COCC2CCCCC2)C(=O)C(n2c(Cl)c(Cl)c3ccccc32)C1=O (stereo not drawn) [Compound 2.011] | 1 (1=0-19%) | 2 (2=20-39%) | 1 (1=0-19%) | 1 (1=0-19%) | 5 (5=80-100%) | 4 (4=60-79%) |
| CC1=NN(C)C(=O)C(n2c(Br)c(Br)c3cc(Br)ccc32)C1=O (stereo not drawn) [Compound 1.022] | 1 (1=0-19%) | 3 (3=40-59%) | 1 (1=0-19%) | 2 (2=20-39%) | 5 (5=80-100%) | 5 (5=80-100%) |
| COC1=NN(C)C(=O)C(n2c(Cl)c(Cl)c3ccccc32)C1=O (stereo not drawn) [Compound 2.022] | 1 (1=0-19%) | 4 (4=60-79%) | 1 (1=0-19%) | 1 (1=0-19%) | 5 (5=80-100%) | 5 (5=80-100%) |
| CN1N=CC(=O)C(n2cc(Cl)c3ccccc32)C1=O (stereo not drawn) [Compound 1.012, 4-(3-Chloro-indol-1-yl)-2-methyl-2H-pyridazine-3,5-dione] | 5 (5=80-100%) | 5 (5=80-100%) | 1 (1=0-19%) | 2 (2=20-39%) | 5 (5=80-100%) | 5 (5=80-100%) |
| CC1=NN(C)C(=O)C(n2c(Cl)c(Br)c3ccccc32)C1=O (stereo not drawn) [Compound 1.021] | 1 (1=0-19%) | 5 (5=80-100%) | 2 (2=20-39%) | 2 (2=20-39%) | 5 (5=80-100%) | 5 (5=80-100%) |
| COC(=O)Oc1c(C)nn(C)c(=O)c1-n1c(Cl)c(Cl)c2ccccc21 [Compound 3.004] | 2 (2=20-39%) | 5 (5=80-100%) | 2 (2=20-39%) | 4 (4=60-79%) | 5 (5=80-100%) | 5 (5=80-100%) |
| CCOC1=NN(C)C(=O)C(n2c(Cl)c(Cl)c3ccccc32)C1=O (stereo not drawn) [Compound 2.023] | 1 (1=0-19%) | 2 (2=20-39%) | 1 (1=0-19%) | 1 (1=0-19%) | 4 (4=60-79%) | 4 (4=60-79%) |
| CC(=O)Oc1c(C)nn(C)c(=O)c1-n1nc(Cl)c2ccccc21 [Compound 3.006] | 1 (1=0-19%) | 4 (4=60-79%) | 2 (2=20-39%) | 4 (4=60-79%) | 5 (5=80-100%) | 5 (5=80-100%) |
| CN1N=CC(=O)C(n2ncc3ccccc32)C1=O (stereo not drawn) [Compound 1.009] | 1 (1=0-19%) | 4 (4=60-79%) | 1 (1=0-19%) | 1 (1=0-19%) | 1 (1=0-19%) | 4 (4=60-79%) |
| CN1N=C([S+](C)[O-])C(=O)C(n2c(Cl)c(Cl)c3ccccc32)C1=O (stereo not drawn) [Compound 2.005] | 1 (1=0-19%) | 2 (2=20-39%) | 1 (1=0-19%) | 1 (1=0-19%) | 5 (5=80-100%) | 5 (5=80-100%) |
| CN(C)C1=NN(C)C(=O)C(n2c(Cl)c(Cl)c3ccccc32)C1=O (stereo not drawn) [Compound 2.021] | 1 (1=0-19%) | 3 (3=40-59%) | 2 (2=20-39%) | 1 (1=0-19%) | 3 (3=40-59%) | 4 (4=60-79%) |
| CC1=NN(C)C(=O)C(n2cc(Br)c3ccccc32)C1=O (stereo not drawn) [Compound 1.025] | 1 (1=0-19%) | 4 (4=60-79%) | 1 (1=0-19%) | 1 (1=0-19%) | 3 (3=40-59%) | 5 (5=80-100%) |
